# Measured values taken from publication PMC6301270 (MedChemComm, 2018).
# “Also recorded” adds a separate entry of the source. Read-outs that look alike come from different tables or passages of the source.
# Tests used:
# T.b. brucei = test system: T.b. brucei; set-up: method as in https://www.pathogenbox.org/; conditions: Table 1, kinetoplastid category; ref https://www.pathogenbox.org/; read-out: T. brucei brucei IC50 (μM) Pathogen Box; cited from earlier work
# [1] = test system: T.b. brucei (strain 427) bloodstream form parasites; test: T.b. brucei single concentration screen (10 μM); conditions: for viability at 10 µM: Trypanosoma brucei, read-out: T.b.brucei % viability (10 µM); for T.b.brucei % viability (10 µM): single concentration 10 µM, % parasite viability relative to non-treated parasites
# HeLa cells = test: HeLa cell assay (cytotoxicity); type: cell-based; conditions: Homo sapiens, HeLa cells, 48 hours, resazurin, read-out: HeLa IC50
# Method: HeLa cells were cultured in DMEM medium supplemented with 10% fetal bovine serum and antibiotics (penicillin/streptomycin/amphotericin B) at 37 °C in a 5% CO2 incubator. On the day prior to compound addition, cells were plated in 96-well plates at 2 × 10^4 cells per well. Compounds were added to the cells in 3-fold serial dilutions and incubation at 37 °C in a 5% CO2 incubator continued for 48 hours. Twenty μl resazurin reagent (0.5 mM resazurin in phosphate-buffered saline) was added to each well and, after a 2-hour incubation, fluorescence (Exc560/Em590) was measured in a plate reader. Percentage cell viability in drug-treated wells was calculated from the fluorescent readings obtained relative to those in wells containing control, untreated cells. Plots of % cell viability vs. log[compound] were used to determine IC50 values by non-linear regression analysis using GraphPad Prism.
# [2] = test system: T.b. brucei (strain 427) bloodstream form parasites; test: Trypanosoma brucei assay, dose–response (this study); type: cell-based; conditions: for IC50: Trypanosoma brucei; for Selectivity index: calculated as IC50(HeLa)/IC50(T.bb)
# [3] = Table 1, kinetoplastid category, 48 hours at 37 °C, resazurin, read-out: T. brucei brucei IC50 (μM) This study
# [4] = Table 2, remaining Pathogen Box, 48 hours at 37 °C, resazurin, read-out: T. brucei brucei IC50 (μM) This study
# [5] = pIC50 values (M), read-out: pIC50 (T.b. brucei), this study (converted)
Compound,viability at 10 µM [1],IC50 (HeLa cells; Table 2),"IC50 [2, 4]",Selectivity index [2],further results
"O=C(Nc1ccc(F)c(-c2nc3cc(-c4ccccc4)cnc3[nH]2)c1)N1CCCC1 [Compound 2, FC1=C(C=C(NC(=O)N2CCCC2)C=C1)C1=NC2=CC(=CN=C2N1)C1=CC=CC=C1]",2%,,,,"IC50 (T.b. brucei): < 0.13 µM; IC50 (HeLa cells; Table 1): 0.8 µM; IC50 [2, 3]: 0.049 µM"
"CC1CCCCN1C(=O)NCCc1coc(-c2ccc(F)cc2)n1 (stereo not drawn) [Compound 5, CC1CCCCN1C(=O)NCCc2coc(n2)c3ccc(F)cc3]",2.2%,,,,"IC50 (HeLa cells; Table 1): > 25 µM; IC50 [2, 3]: 0.05 µM"
"N=C(N)c1ccc(-c2cc(-c3ccccc3)on2)cc1 [Compound 26, NC(=N)c1ccc(cc1)c2cc(on2)c3ccccc3]",14%,,,,IC50 (T.b. brucei): 4.06 µM; T.b.brucei % viability (10 µM) [1]: did not sufficiently reduce cell viability
"CCN(CC)S(=O)(=O)c1ccc(C(=O)Nc2cc(C)nn2-c2nc(C)c(C)c(=O)[nH]2)cc1 [Compound 27, CC1=C(C)C(NC(N2N=C(C)C=C2NC(C3=CC=C(S(=O)(N(CC)CC)=O)C=C3)=O)=N1)=O]",58%,,,,IC50 (T.b. brucei): 5.3 µM; T.b.brucei % viability (10 µM) [1]: did not sufficiently reduce cell viability
"N=C(N)Nc1ccc(-c2ccc(-c3ccc(NC(=N)N)cc3Cl)o2)c(Cl)c1 [Compound 32, NC(=N)Nc1ccc(c(Cl)c1)c2oc(cc2)c3ccc(NC(=N)N)cc3Cl]",17%,,,,IC50 (T.b. brucei): 1.03 µM; T.b.brucei % viability (10 µM) [1]: did not sufficiently reduce cell viability
"c1ccc(-c2nc(NC3CCCCC3)cc(C3CC3)n2)nc1 [Compound 35, C1CCC(CC1)Nc2cc(nc(n2)c3ccccn3)C4CC4]",2%,> 25 µM,0.83 µM,,"T.b. brucei inhibition in words, this study [2]: sub-micromolar range; also recorded: activity in the nanomolar range; IC50 [2, 5]: < 1 µM"
"Cc1ccc2[nH]c(C3CCCNC3)c(-c3ccncc3)c2c1 (stereo not drawn) [Compound 36, Cc1ccc2[nH]c(C3CCCNC3)c(c4ccncc4)c2c1]",1%,8.9 µM,2.2 µM,4.0,
"CCOC(=O)c1c(NC(=O)c2c(F)c(F)c(F)c(F)c2F)sc(C(N)=O)c1C [Compound 37, CCOC(=O)c1c(C)c(sc1NC(=O)c2c(F)c(F)c(F)c(F)c2F)C(=O)N]",7%,> 25 µM,11 µM,> 2.2,
"COC(=O)c1c(NC(=O)c2c(F)c(F)c(F)c(F)c2F)sc2c1CCCCC2 [Compound 38, COC(=O)c1c2CCCCCc2sc1NC(=O)c3c(F)c(F)c(F)c(F)c3F]",7%,> 25 µM,11 µM,> 2.2,
"O=C(Nc1nc(-c2ccccn2)cs1)c1cncn1-c1ccccc1 [Compound 41, O=C(Nc1nc(cs1)c2ccccn2)c3cncn3c4ccccc4]",1%,5.1 µM,1.1 µM,4.6,
"CC(C)=CCC/C(C)=C\CNCCNC1C2CC3CC(C2)CC1C3 (stereo not drawn) [Compound 42, CC(=CCC\C(=C/CNCCNC1C2CC3CC(CC1C3)C2)\C)C]",2%,15 µM,2.3 µM,6.5,
"COc1cccc(-c2nc3c(N4CCCC4)cccc3n2CC2CCCN2)n1 (stereo not drawn) [Compound 44, COc1cccc(n1)c2nc3c(cccc3n2CC4CCCN4)N5CCCC5]",4%,22 µM,4.2 µM,5.2,
"Cc1cnc(N2CCN[C@@H](Cc3ccccc3)C2)nc1Oc1ccc(-n2ccnc2)cc1 [Compound 45, Cc1cnc(nc1Oc2ccc(cc2)n3ccnc3)N4CCN[C@@H](Cc5ccccc5)C4]",10%,> 25 µM,5.1 µM,> 4.9,
"COc1ccc2nccc(NC(=O)C3CCN(CCc4ccc(Cl)cc4)CC3)c2n1 [Compound 47, COc1ccc2nccc(NC(=O)C3CCN(CCc4ccc(Cl)cc4)CC3)c2n1]",7%,> 25 µM,29 µM,,
"COc1ccc(OC)c(NCc2ccc3nc(N)nc(N)c3c2Cl)c1 [Compound 48, COc1ccc(OC)c(NCc2ccc3nc(N)nc(N)c3c2Cl)c1]",12%,> 25 µM,1.2 µM,> 21,
"Cc1cc(C2=NOC(c3cc(Cl)c(F)c(Cl)c3)(C(F)(F)F)C2)ccc1C(=O)NCc1ccc2c(c1)C(C)(C)OB2O (stereo not drawn) [Compound 49, Cc1cc(ccc1C(=O)NCc2ccc3B(O)OC(C)(C)c3c2)C4=NOC(C4)(c5cc(Cl)c(F)c(Cl)c5)C(F)(F)F]",1%,10 µM,1.2 µM,8.3,
"CC(C)n1nc(-c2cc3c(Cl)cccc3[nH]2)c2c(N)ncnc21 [Compound 50, CC(C)n1nc(-c2cc3c(Cl)cccc3[nH]2)c2c(N)ncnc12]",4%,> 25 µM,4.3 µM,> 5.8,

Compound,viability at 10 µM [1],IC50 (HeLa cells; Table 2),"IC50 [2, 4]",Selectivity index [2],further results
"CN(C)c1cc(NC(=O)Nc2ccccc2)c2ccccc2n1 [Compound 52, CN(C)c1cc(NC(=O)Nc2ccccc2)c3ccccc3n1]",1%,> 25 µM,4.7 µM,> 5.3,
"Cc1ccc2c(c1C)NC(=O)C21NN=C(c2ccccc2)S1 (stereo not drawn) [Compound 54, Cc1ccc2c(NC(=O)C23NN=C(S3)c4ccccc4)c1C]",3%,6.6 µM,1 µM,6.6,"T.b. brucei inhibition in words, this study [2]: sub-micromolar range; IC50 [2, 5]: < 1 µM"
"CC(C)C(C(=O)Nc1ccc(S(=O)(=O)N(C)C)cc1)c1ccc(Cl)cc1 (stereo not drawn) [Compound 55, CC(C)C(C(=O)Nc1ccc(cc1)S(=O)(=O)N(C)C)c2ccc(Cl)cc2]",8%,12 µM,6.5 µM,1.8,
"CN1CCC(NCc2cccc(-c3ccc(S(=O)(=O)NCc4ccccc4)cc3)c2)CC1 [Compound 56, CN1CCC(CC1)NCc2cccc(c2)c3ccc(cc3)S(=O)(=O)NCc4ccccc4]",2%,13 µM,0.22 µM,,"T.b. brucei inhibition in words, this study [2]: sub-micromolar range; also recorded: activity in the nanomolar range; IC50 [2, 5]: < 1 µM"
"Nc1nccc2ccc(-c3ccc4nccn4c3)cc12 [Compound 57, Nc1nccc2ccc(cc12)c3ccc4nccn4c3]",3%,5.4 µM,1.2 µM,4.5,
"OCCc1ccc(Nc2nccc(-c3nnc4ccccn34)n2)cc1 [Compound 58, OCCc1ccc(Nc2nccc(n2)c3nnc4ccccn34)cc1]",11%,> 25 µM,1.5 µM,> 17,
"CCCn1c(NC(=O)c2ccc3ccccc3n2)nc2ccccc21 [Compound 59, CCCn1c(NC(=O)c2ccc3ccccc3n2)nc4ccccc14]",2%,> 25 µM,7.1 µM,> 3.5,
"Oc1c(I)cc(I)c2cccnc12 [Compound 60, Oc1c(I)cc(I)c2cccnc12]",1%,> 25 µM,2 µM,> 13,
"CS(=O)(=O)c1ccc(C(=O)N(CC2CCCO2)c2nc3ccccc3s2)cc1[N+](=O)[O-] (stereo not drawn) [Compound 61, CS(=O)(=O)c1ccc(cc1[N+](=O)[O-])C(=O)N(CC2CCCO2)c3nc4ccccc4s3]",0%,> 25 µM,11 µM,> 2.3,
"CC[C@H]1CN2CCc3cc(OC)c(OC)cc3[C@@H]2C[C@@H]1C[C@H]1NCCc2cc(OC)c(OC)cc21 [Emetine, reference compound]",,,,,IC50 (HeLa cells; Table 1): 0.4 µM
"O=C(Nc1nc(-c2ccccn2)cs1)C1CC1c1ccccc1F (stereo not drawn) [MMV1028806, Fc1ccccc1C2CC2C(=O)Nc3nc(cs3)c4ccccn4]",63%,,,,
"CNC(=O)CNc1nc(-c2ccccn2)nc2scc(-c3ccccc3)c12 [MMV1029203, CNC(=O)CNc1nc(nc2scc(c3ccccc3)c12)c4ccccn4]",98%,,,,
"CCNC(=O)C(C)Nc1nc(-c2cccnc2)nc2sc(C)c(C)c12 (stereo not drawn) [MMV1037162, CCNC(=O)C(C)Nc1nc(nc2sc(C)c(C)c12)c3cccnc3]",85%,,,,
"Cc1ccc(-c2nc(CN(Cc3ccccn3)C(C)C)cs2)o1 [MMV1088520, CC(C)N(Cc1ccccn1)Cc2csc(n2)c3oc(C)cc3]",72%,,,,
"COc1cccn2c(C(=O)N3CCCCC3)c(C(F)(F)F)nc12 [MMV1110498, FC(F)(F)C1=C(C(N2CCCCC2)=O)N(C=CC=C3OC)C3=N1]",99%,,,,
"Cc1cc(OCC(=O)Nc2ccc(C(C)C)cc2)n(C)c(=O)c1C#N [MMV1198433, CC(C)c1ccc(NC(=O)COC2=CC(=C(C#N)C(=O)N2C)C)cc1]",70%,,,,
"N=C(N)c1ccc(OCCCCCOc2ccc(C(=N)N)cc2)cc1 [Pentamidine, reference compound]",,,,,"IC50 [2, 3]: 0.0031 µM"
